Read-outs that look alike come from different tables or passages of the source.
Experiments:
[1] = tested on: M. smegmatis expressing wildtype PknG in murine macrophage cell line RAW; format: cell-based, Mycobacterium smegmatis; conditions: FIG. 2
[2] = target: T1, mycobacterial protein kinase G (PknG) (Mycobacterium tuberculosis, UniProt P9WI73); experiment: biochemical
T1 construct: GST; made in house; host or cells: E. coli BL21

[3] = read-out: IC50 value, inhibition of serine/threonine protein kinase G of M. tuberculosis
[4] = ATP near Km, read-out: Inhibition of PknG (IC50, [μM])
[5] = ranging from about 2 μM and more than 30 μM over the listed compounds, read-out: IC50 values, inhibition of PknG (span stated for the group)

T1 sequence (P9WI73 whole entry): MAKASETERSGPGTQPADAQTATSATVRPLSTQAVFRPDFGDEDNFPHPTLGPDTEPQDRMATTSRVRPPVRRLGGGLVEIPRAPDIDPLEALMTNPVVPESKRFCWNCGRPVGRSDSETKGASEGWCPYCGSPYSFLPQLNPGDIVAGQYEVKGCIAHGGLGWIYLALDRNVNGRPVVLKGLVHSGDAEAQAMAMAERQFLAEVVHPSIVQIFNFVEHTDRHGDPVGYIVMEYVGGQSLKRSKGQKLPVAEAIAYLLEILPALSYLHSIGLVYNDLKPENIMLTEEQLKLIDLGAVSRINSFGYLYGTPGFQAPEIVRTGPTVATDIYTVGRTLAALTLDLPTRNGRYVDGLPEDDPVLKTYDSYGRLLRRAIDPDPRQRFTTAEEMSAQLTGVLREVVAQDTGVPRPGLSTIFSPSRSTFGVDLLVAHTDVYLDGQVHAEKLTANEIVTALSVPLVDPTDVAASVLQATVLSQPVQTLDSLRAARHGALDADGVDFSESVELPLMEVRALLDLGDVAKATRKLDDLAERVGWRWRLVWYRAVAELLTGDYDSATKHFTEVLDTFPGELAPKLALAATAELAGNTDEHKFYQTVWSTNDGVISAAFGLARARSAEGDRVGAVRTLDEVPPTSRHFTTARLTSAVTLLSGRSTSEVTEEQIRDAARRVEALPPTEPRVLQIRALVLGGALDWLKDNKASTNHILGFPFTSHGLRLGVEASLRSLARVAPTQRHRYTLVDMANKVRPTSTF

Row | SMILES | resistance to macrophage degradation of wildtype PknG-expressing M. smegmatis ([1]; 1 μM or 10 μM) | clearance of PknG-expressing M. smegmatis in macrophages ([1]; 10 μM, 24 hours postinfection, RAW cells) | IC50 [2, 3] | IC50 [2, 4] | IC50 [2, 5]
1 | NC(=O)c1c(NC(=O)C2CC2)sc2c1CCCC2 [Compound 237, 2-(Cyclopropanecarbonyl-amino)-4,5,6,7-tetrahydro-benzo[b]thiophene-3-carboxylic acid amide] | overcomes the resistance to macrophage degradation | as efficient as observed with the mutant or vector control transformants | 0.2 µM |  | 
2 | NC(=O)c1c(NC(=O)Cc2ccc([N+](=O)[O-])cc2)sc2c1CCCC2 [Compound 238, 2-[2-(4-Nitrophenyl)-acetylamino]-4,5,6,7-tetrahydro-benzo[b]thiophene-3-carboxylic acid amide] |  |  |  | ~5 µM | ≥ 2 µM
3 | CC1CCc2c(sc(NC(=O)Cn3cnc([N+](=O)[O-])n3)c2C(N)=O)C1 (centres unmarked) [Compound 239, 6-Methyl-2-[2-(3-nitro-[1,2,4]triazol-1-yl)-acetylamino]-4,5,6,7-tetrahydro-benzo[b]thiophene-3-carboxylic acid amide] |  |  |  | > 30 µM | ≥ 2 µM
4 | O=C(Nc1sc2c(c1C(=O)NCCO)CCCC2)c1ccco1 [Compound 240, Furan-2-carboxylic acid [3-(2-hydroxy-ethylcarbamoyl)-4,5,6,7-tetrahydro-benzo[b]thiophen-2-yl]-amide] |  |  |  | 16 µM | ≥ 2 µM
5 | CC(=O)Nc1sc2c(c1C(N)=O)CCCC2 [Compound 250, 2-Acetylamino-4,5,6,7-tetrahydrobenzo[b]thiophene-3-carboxylic acid amide] |  |  |  | > 30 µM | ≥ 2 µM
6 | O=C(O)c1c(NC(=O)C2CC2)sc2c1CCCC2 [Compound 252, 2-(Cyclopropanecarbonyl-amino)-4,5,6,7-tetrahydro-benzo[b]thiophene-3-carboxylic acid] |  |  |  | ~19 µM | ≥ 2 µM
7 | CC(C)C(=O)Nc1sc2c(c1C(N)=O)CCCC2 [Compound 255, 2-Isobutyrylamino-4,5,6,7-tetrahydrobenzo[b]thiophene-3-carboxylic acid amide] |  |  |  | ~3 µM | ≥ 2 µM
8 | CCOC(=O)c1c(NC(=O)C(C)C)sc2c1CCCC2 [Compound 256, 2-Isobutyrylamino-4,5,6,7-tetrahydrobenzo[b]thiophene-3-carboxylic acid ethyl ester] |  |  |  | > 30 µM | ≥ 2 µM
9 | NC(=O)c1c(NC(=O)C2CCC2)sc2c1CCCC2 [Compound 266, 2-(Cyclobutanecarbonyl-amino)-4,5,6,7-tetrahydrobenzo[b]thiophene-3-carboxylic acid amide] |  |  |  | ~3 µM | ≥ 2 µM
10 | CCC(C)C(=O)Nc1sc2c(c1C(N)=O)CCCC2 (centres unmarked) [Compound 267, 2-(2-Methyl-butyrylamino)-4,5,6,7-tetrahydrobenzo[b]thiophene-3-carboxylic acid amide] |  |  |  | ~15 µM | ≥ 2 µM
11 | CC1CCc2c(sc(NC(=O)C3CC3)c2C(N)=O)C1 (centres unmarked) [Compound 270, 2-(Cyclopropanecarbonyl-amino)-6-methyl-4,5,6,7-tetrahydrobenzo[b]thiophene-3-carboxylic acid amide] |  |  | 0.9 µM |  | 
12 | CC(=O)Nc1sc2c(c1C(N)=O)CCC(C)C2 (centres unmarked) [Compound 284, 2-Acetylamino-6-methyl-4,5,6,7-tetrahydrobenzo[b]thiophene-3-carboxylic acid amide] |  |  |  | ~12 µM | ≥ 2 µM
13 | NC(=O)c1c(NC(=O)C2CC2)sc2c1CCSC2 [Compound 286, 2-(Cyclopropanecarbonyl-amino)-4,7-dihydro-5H-thieno[2,3-c]-thiopyran-3-carboxylic acid amide] |  |  |  | ~2 µM | ≥ 2 µM

From patent US20040171603A1, “Novel therapeutic targets for the treatment of mycobacterial infections and compounds useful therefor” (priority 2001, published 2004)
